According to PMC8318231, “Rate-of-Kill (RoK) assays to triage large compound sets for Chagas disease drug discovery: Application to GSK Chagas Box” (PLoS Neglected Tropical Diseases, 2021):

What was measured:
TcCYP51 = conditions: formerly reported; cited from earlier work
[1] = test system: T. cruzi Tulahuen trypomastigotes; assay: T. cruzi trypomastigote assay (Cell Titer-Glo viability, ATP luminescence); assay type: cell-based, Trypanosoma cruzi; conditions: for Trypomastigotes pIC50 48 hours: 48 hours incubation; for Trypomastigotes pIC50 48 hours / Trypomastigotes pIC50 72 hours: pIC50 = -log10 IC50 in molar units; for Trypomastigotes pIC50 72 hours: 72 hours incubation; for 48 pIC50 / 72 pIC50: trypomastigote assay; for 48 pIC50: 48 h; for 72 pIC50: 72 h
Method: T. cruzi Tulahuen trypomastigotes obtained from the supernatants of LLC-MK2 infected cultures in a 225 cm^2 T-Flasks harvested between days 5 and 8 of infection. Trypomastigotes (5 × 10^4 per well) in 50 μl of DMEM/ 2% FBS were dispensed into white 384 plates (Greiner) pre-stamped with 250 nl compound a single-shot final concentration of 5 μM, or in dose response. […] Cell Titer-Glo cell viability solution (Promega) was added to each well (50 μL) incubated at room temperature for 10 min and luminescence read by Envision plate reader (Perkin Elmer). This assay quantifies the amount of ATP present which is directly proportional to the number of metabolically active cells. All data were normalised (100% effect control for no cells and 0% effect control for DMSO). This assay was adapted from MacLean et al., 2018 [22].

Compound	CYP51 pIC50 (TcCYP51)	Trypomastigotes pIC50 48 hours [1]	Trypomastigotes pIC50 72 hours [1]	48 pIC50 ([1]; figure 1A)	72 pIC50 ([1]; figure 1A)	72 pIC50 ([1]; figure 1B)
O=C(Nc1cccc(Cl)c1)N1CCCCC1c1cccnc1 (stereo not drawn) [TCMDC-143529]	7.7	< 4.3	< 4.3	< 4.3	< 4.3	< 4.3
c1cc(-c2ncc(-c3ccn[nH]3)s2)ccn1 [TCMDC-143461]	7.4	< 4.3	< 4.3	< 4.3	< 4.3	< 4.3
CCCC(=O)N(Cc1ccccn1)c1nc2ccccc2s1 [TCMDC-143599]	7.3	< 4.3	< 4.3	< 4.3	< 4.3	< 4.3
c1cncc(CN(Cc2ccco2)Cc2cn[nH]c2-c2cccs2)c1 [TCMDC-143440]	7.1	4.4	< 4.3			
Cn1nc([N+](=O)[O-])nc1Oc1ccc(C(=O)c2ccccc2)cc1 [TCMDC-143126]	< 4	6	6.1			
Cc1ccccc1OCC(=O)N1CCCN(c2cccnn2)CC1 [TCMDC-143495]	7.1	< 4.3	< 4.3	< 4.3	< 4.3	< 4.3
COc1ccc(C(=O)N2CCC(Nc3cccnc3)C2)c(OC)n1 (stereo not drawn) [TCMDC-143474]	7.2	< 4.3	< 4.3	< 4.3	< 4.3	< 4.3
O=C(Cn1cnc2cc([N+](=O)[O-])ccc2c1=O)NCCc1ccc(Cl)cc1Cl [TCMDC-143519]	< 4	5.9	6.1			
Cc1ccc(NC(=O)c2ccc(Cl)c(NC(=O)c3ccc([N+](=O)[O-])cc3)c2)cc1 [TCMDC-143150]	< 4	5.8	5.6			
O=[N+]([O-])c1cccc(Nc2cncc(-c3ccccc3CO)c2)c1 [TCMDC-143559]	5.5	< 4.3	< 4.3	< 4.3	< 4.3	< 4.3
Nc1ncnc2c1ncn2[C@@H]1O[C@H](CO)C[C@H]1O [TCMDC-143080]	< 4	< 4.3	6			
Cc1ccc2ccc(C(Nc3ccccn3)c3cccnc3)c(O)c2n1 (stereo not drawn) [TCMDC-143308]	7.3	5.7	5.4			
Cc1nn(C2CCS(=O)(=O)C2)c(C)c1CN(C)C(=O)C=Cc1sc2ccccc2c1Cl (stereo not drawn) [TCMDC-143258]	7.5	4.4	4.7			
N#Cc1ccc(S(=O)(=O)N2CCN(Cc3cccc(-c4ccncc4)c3)CC2)cc1 [TCMDC-143620]	7.1	4.4	< 4.3			
